Read-outs that look alike come from different tables or passages of the source.
Experiments:
CFTR-Y122X = CFTR-Y122X assay (dual reporter isogenic Hek293 cell lines, Renilla luminescence readthrough); type: cell-based; conditions: for Emax / AC50 / Amax: nonsense mutation suppression, 24 h incubation, tested up to 100 μM; for Emax / Amax: 100% = 14 mM paromomycin; for Emax: read-out: Amax
Description: Activity of compounds of the present invention was examined in recombinant, dual reporter isogenic Hek293 cell lines (“CFTR-Y122X assay”). The engineered reporter constructs contained the 18 bp sequence stretch corresponding to a common Y122X PTC mutation in CFTR class I mutant patients (see Sermet-Gaudelus, BMC Medicine, 2007, 5(5)). Instead of a tyrosine (Y) in position 122 of the CFTR protein a TGA stop codon interrupts the open reading frame (Y122X) of the corresponding mRNA. This TGA stop codon triplet (followed by the pyrimidine base cytosine) is permissive to aminoglycoside mediated translational readthrough which served as positive control for high throughput screening. A corresponding TAA stop codon variant and a wildtype non mutated construct was used for confirmation and counter screening. The CFTR sequence was sandwiched between an eGFP reporter, and a triple myc tag sequence fused to a full length Renilla reporter. All sequences, including an intron containing one positioned pre-eGFP (b-globin intron) were cloned in frame. The corresponding expression constructs were stably expressed in the isogenic HEK-R4 cell host (Invitrogen Incorp.) and selected by blasticidin resistance. The isogenic integration of the construct minimizes gene dose effects and improves assay reproducibility. Stably integrated single cell derived clones were selected and characterized for aminoglycoside mediated readthrough. […] Readthrough of Y122X accumulates an intracellular localized fusion protein approximately 65.5 kDa in size as controlled by western blot analysis and immunofluorescence using an anti-renilla antibody. The eGFP reporter pre-PTC mutation serves as visual control for genetic stability of the screening clones and minimizes protein degradation of small fusion protein amounts. In the assay, compound concentration was 10 μM. In miniaturized 1536 well format 2000 cells were dispensed in 4 μl/well and incubated for 24 h at 37° C., 5% CO2. 40 nl compounds were placed on the cells with control wells containing 1 ul Paramomycin and 14.4 mM final concentration. Compounds were incubated for 24 h. Renilla Glo substrate (2.5 ul) was added and plates were centrifuged and processed for luminescence measurement using various readers. Activity calculation was done using the equation: A1(%)=100*(S−NC)/(AC−NC) where AC, NC and S correspond to active controls (injection of Stimulation buffer=100% stimulation), neutral controls (buffer injection which Iloprost EC10) and screening samples (S). NC corresponds to 0% activity whereas AC is 100% activity (14 mM paromomycin). False positive artifacts were removed in confirmation and validation screening using the same assay format followed by counterscreening using the respective wildtype construct (w/o PTC mutation) cell model. Compounds were tested up to 100 μM compound concentration.

[1] = system: alpha-L-Iduronidase W402X in Hurler patient derived fibroblast cells; experiment: Hurler patient derived fibroblast cell cultures, restored alpha-L-iduronidase activity (W402X readthrough); type: cell-based, human; conditions: 8 days incubation, highest concentration 20 uM; for Emax / AC50: Homo sapiens, Fibroblast, 192 h; for Emax / Amax: 14 mM paromomycin = 100% control; for Emax: read-out: Amax; for AC50: 8 point dilutions
Description: Activity of compounds of the present invention was examined in patient derived fibroblast cells. The genotyped cells were derived from the Coriell Institute (# GM00798) and contain an in frame homozygous TGG to TAG change at nucleotide 1293 of exon 9 which results in a W402X mutation. The W402X mutation is one of the most common Hurler syndromes causing loss of function mutation. Between 60-70% of genotyped patients contain either the Q70X and/or the W402X in mutation and are classified as severe MPSI patients. This TAG stop codon triplet is permissive to aminoglycoside mediated translational readthrough which served as activity control for compound testing. Readthrough of W402X restores alpha-L-Iduronidase activity which results in removal of lysosomal accumulated Glycosaminoglycan's. Iduronidase expression could neither be detected by Taqman PCR© nor by enzyme activity or ELISA methods without compound stimulation. Compounds were tested in concentration response mode. Therefore 5000 patient cells/40 ul/well in 384 well plates were used. Compound dilutions were derived from freshly prepared 10 mM compound stock solutions. Highest concentration was 20 uM and subsequently diluted 1: 3.16 (8 point dilutions, n=4). Final DMSO concentration was below 0.5% and tested to be without effect on cell viability, growth and readthrough. Cells were incubated for 8 days with one cell media and compound exchange at day 3. Thereafter cell media was removed and cells were lysed (0.4 M Sodiumformate, 0.1% NaN3, 0.9% NaCl, 0.2% Triton, pH 3.5). Restored alpha-L-iduronidase activity in cell lysates was measured with the fluorescent 4-MU iduronide substrate (5 ul of 0.4 mM 4 Methylumbelliferyl alpha-L-iduronide/well) after 48 h incubation. Paromomycin was used as reference control (14 mM=100% control).

Row | SMILES | Emax [1] | AC50 [1] | Emax (CFTR-Y122X; Homo sapiens, HEK293, 24 h) | AC50 (CFTR-Y122X; Homo sapiens, HEK293, 24 h) | also measured
1 | CCSc1nc2c(c(=O)n1-c1ccccc1)C(=O)C1CCCC1N2 (stereo not shown) [2-(ethylthio)-3-phenyl-5a,6,7,8,8a,9-hexahydro-3H-cyclopenta[5,6]pyrido[2,3-d]pyrimidine-4,5-dione] | – | – | – | – | suppression relative to paromomycin reference activity (CFTR-Y122X; at the above dose ranges (up to 100 μM)): less than 5%
2 | CC(C)c1nc2c(c(=O)c3sccc3n2C)c(=O)n1-c1ccccc1 [Example 1.1, 2-isopropyl-9-methyl-3-phenylthieno[2′,3′:5,6]pyrido[2,3-d]pyrimidine-4,5(3H,9H)-dione] | 25% | 12 µM | – | – | Emax (CFTR-Y122X; Homo sapiens, HEK293): 247%; AC50 (CFTR-Y122X; Homo sapiens, HEK293): 2.2 µM
3 | Cc1cc2c(=O)c3c(=O)n(-c4ccccc4)c(C(C)C)nc3n(C)c2s1 [Example 1.2, 2-isopropyl-7,9-dimethyl-3-phenylthieno[3′,2′:5,6]pyrido[2,3-d]pyrimidine-4,5(3H,9H)-dione] | – | 17 µM | – | – | Amax [1]: 59%; Amax (CFTR-Y122X): 249%; AC50 (CFTR-Y122X): 13 µM
4 | Cc1cc2c(=O)c3c(=O)n(-c4ccccc4)c(C4CCC4)nc3[nH]c2s1 [Example 2.1, 2-cyclobutyl-7-methyl-3-phenylthieno[3′,2′:5,6]pyrido[2,3-d]pyrimidine-4,5(3H,9H)-dione] | 42% | 12 µM | 211% | 12 µM | –
5 | Cc1cc2c(=O)c3c(=O)n(-c4ccccc4)c(C4CCC4)nc3n(CCN)c2s1 [Example 2.2, 9-(2-aminoethyl)-2-cyclobutyl-7-methyl-3-phenylthieno[3′,2′:5,6]pyrido[2,3-d]pyrimidine-4,5(3H,9H)-dione] | 162% | 6.9 µM | 343% | 4.3 µM | –
6 | Cc1cc2c(s1)c(=O)c1c(=O)n(-c3ccccc3)c(C(C)C)nc1n2C [Example 2.3, 2-isopropyl-7,9-dimethyl-3-phenylthieno[2′,3′:5,6]pyrido[2,3-d]pyrimidine-4,5(3H,9H)-dione] | 39% | – | 169% | 14 µM | –
7 | Cc1cc2c(=O)c3c(=O)n(-c4ccccc4)c(C(C)C)nc3n(C)c2s1 [Example 2.4, 2-isopropyl-7,9-dimethyl-3-phenylthieno[3′,2′:5,6]pyrido[2,3-d]pyrimidine-4,5(3H,9H)-dione] | – | – | – | 11 µM | Amax [1]: 13%; Amax (CFTR-Y122X): 299%
8 | CC(C)c1nc2[nH]c3cscc3c(=O)c2c(=O)n1-c1ccccc1 [Example 2.5, 2-isopropyl-3-phenylthieno[3′,4′:5,6]pyrido[2,3-d]pyrimidine-4,5(3H,9H)-dione] | 16% | 1.1 µM | 113% | 23 µM | –
9 | CC(C)c1nc2[nH]c3sccc3c(=O)c2c(=O)n1-c1ccccc1 [Example 2.6, 2-isopropyl-3-phenylthieno[3′,2′:5,6]pyrido[2,3-d]pyrimidine-4,5(3H,9H)-dione] | 6% | – | 97% | 16 µM | –
10 | CC(C)c1nc2[nH]c3ccsc3c(=O)c2c(=O)n1-c1ccccc1 [Example 2.7, 2-isopropyl-3-phenylthieno[2′,3′:5,6]pyrido[2,3-d]pyrimidine-4,5(3H,9H)-dione] | 51% | 10 µM | 332% | 6.9 µM | –
11 | Cc1cc2[nH]c3nc(C(C)C)n(-c4ccccc4)c(=O)c3c(=O)c2s1 [Example 2.8, 2-isopropyl-7-methyl-3-phenylthieno[2′,3′:5,6]pyrido[2,3-d]pyrimidine-4,5(3H,9H)-dione] | 65% | 10 µM | 225% | 7.9 µM | –
12 | Cc1cc2c(=O)c3c(=O)n(-c4ccccc4)c(C4CCC4)nc3n(C)c2s1 [Example 2.9, 2-cyclobutyl-7,9-dimethyl-3-phenylthieno[3′,2′:5,6]pyrido[2,3-d]pyrimidine-4,5(3H,9H)-dione] | 96% | 3.7 µM | 207% | 2.2 µM | –
13 | Cn1c2nc(C3CCC3)n(-c3ccccc3)c(=O)c2c(=O)c2ccsc21 [Example 2.10, 2-cyclobutyl-9-methyl-3-phenylthieno[3′,2′:5,6]pyrido[2,3-d]pyrimidine-4,5(3H,9H)-dione] | 167% | 5.5 µM | 393% | 2 µM | –
14 | Cn1c2ccsc2c(=O)c2c(=O)n(-c3ccccc3)c(C3CCC3)nc21 [Example 2.11, 2-cyclobutyl-9-methyl-3-phenylthieno[2′,3′:5,6]pyrido[2,3-d]pyrimidine-4,5(3H,9H)-dione] | 152% | 4.5 µM | 157% | 2 µM | –
15 | Cc1cc2c(s1)c(=O)c1c(=O)n(-c3ccccc3)c(C3CCC3)nc1n2C [Example 2.12, 2-cyclobutyl-7,9-dimethyl-3-phenylthieno[2′,3′:5,6]pyrido[2,3-d]pyrimidine-4,5(3H,9H)-dione] | 138% | 9 µM | 133% | 3 µM | –
16 | CCc1cc2c(=O)c3c(=O)n(-c4ccccc4)c(C4CCC4)nc3n(C)c2s1 [Example 2.13, 2-cyclobutyl-7-ethyl-9-methyl-3-phenylthieno[3′,2′:5,6]pyrido[2,3-d]pyrimidine-4,5(3H,9H)-dione] | 66% | 16 µM | 118% | 6.1 µM | –
17 | Cc1csc2c1c(=O)c1c(=O)n(-c3ccccc3)c(C3CCC3)nc1n2C [Example 2.14, 2-cyclobutyl-6,9-dimethyl-3-phenylthieno[3′,2′:5,6]pyrido[2,3-d]pyrimidine-4,5(3H,9H)-dione] | 10% | – | 114% | 13 µM | –
18 | Cc1csc2c(=O)c3c(=O)n(-c4ccccc4)c(C4CCC4)nc3n(C)c12 [Example 2.15, 2-cyclobutyl-8,9-dimethyl-3-phenylthieno[2′,3′:5,6]pyrido[2,3-d]pyrimidine-4,5(3H,9H)-dione] | 115% | 5.7 µM | 188% | 2.6 µM | –
19 | Cc1scc2c(=O)c3c(=O)n(-c4ccccc4)c(C4CCC4)nc3n(C)c12 [Example 2.16, 2-cyclobutyl-8,9-dimethyl-3-phenylthieno[3′,4′:5,6]pyrido[2,3-d]pyrimidine-4,5(3H,9H)-dione] | 150% | 12.3 µM | 199% | 4.6 µM | –
20 | NC[C@@H]1O[C@H](O[C@H]2[C@@H](O)[C@H](O[C@@H]3[C@@H](O)[C@H](N)C[C@H](N)[C@H]3O[C@H]3O[C@H](CO)[C@@H](O)[C@H](O)[C@H]3N)O[C@@H]2CO)[C@H](N)[C@@H](O)[C@@H]1O [paromomycin, reference compound] | – | – | – | – | EC50 (CFTR-Y122X; Homo sapiens, HEK293, clone pursued for HTS assay development, read-out: EC50 (readthrough response of selected clone)): 1500 µM
